pIC50: −log10 of the molar value.
System: RS4;11 cells
Experiment: Cell viability assay (CellTiter-Glo) in RS4;11 cells
Format: cell-based
Settings: Homo sapiens, 72 h; RS4;11 ALL cells treated for three days; read-out: cell viability inhibition IC50
Procedure, shortened: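 RS4;11 cells seeded at 5000 per well, exposed for 3 days to 8- or 12-point 3-fold serial dilutions. Viability read by CellTiter-Glo luminescence; IC50 fitted by nonlinear least-squares regression.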

Row | pIC50 | Structure (SMILES)
1 | > 7.00 | CS(=O)(=O)c1ccc(-c2cccc3nc(Nc4ccc(N5CCN(C(=O)CCCCNc6ccc7c(c6)C(=O)N(C6CCC(=O)NC6=O)C7=O)CC5)cc4)nn23)cc1 (stereo not drawn) [JA-196, 2-(2,6-dioxopiperidin-3-yl)-5-((5-(4-(4-((5-(4-(methylsulfonyl)phenyl)-[1,2,4]triazolo[1,5-a]pyridin-2-yl)amino)phenyl)piperazin-1-yl)-5-oxopentyl)amino)isoindoline-1,3-dione]

Same assay, conditions: Homo sapiens, 72 h; RS4;11 cells; cell viability, 3 days, CellTiter-Glo; read-out: IC50

Row | Structure (SMILES) | pIC50
2 | Cc1ncsc1-c1ccc(CNC(=O)[C@@H]2C[C@@H](O)CN2C(=O)[C@@H](NC(=O)CCCCCCC(=O)N2CCN(c3ccc(Nc4nc5cccc(-c6ccc(S(C)(=O)=O)cc6)n5n4)cc3)CC2)C(C)(C)C)cc1 [JA-062, (2S,4R)-1-((S)-3,3-Dimethyl-2-(8-(4-(4-((5-(4-(methylsulfonyl)phenyl)-[1,2,4]triazolo[1,5-a]pyridin-2-yl)amino)phenyl)piperazin-1-yl)-8-oxooctanamido)butanoyl)-4-hydroxy-N-(4-(4-methylthiazol-5-yl)benzyl)pyrrolidine-2-carboxamide] | < 5.00
3 | CS(=O)(=O)c1ccc(-c2cccc3nc(Nc4ccc(N5CCN(CC(=O)NCCOCCOCCNc6ccc7c(c6)C(=O)N(C6CCC(=O)NC6=O)C7=O)CC5)cc4)nn23)cc1 (stereo not drawn) [JA-208, N-(2-(2-(2-((2-(2,6-Dioxopiperidin-3-yl)-1,3-dioxoisoindolin-5-yl)amino)ethoxy)ethoxy)ethyl)-2-(4-(4-((5-(4-(methylsulfonyl)phenyl)-[1,2,4]triazolo[1,5-a]pyridin-2-yl)amino)phenyl)piperazin-1-yl)acetamide] | 5.48
4 | Cc1cnc(Nc2ccc(N3CCN(C(=O)CCCC(=O)N[C@H](C(=O)N4C[C@H](O)C[C@H]4C(=O)NCc4ccc(-c5scnc5C)cc4)C(C)(C)C)CC3)cc2)nc1Nc1cccc(S(=O)(=O)NC(C)(C)C)c1 [JA-023, (2S,4R)-1-((S)-2-(5-(4-(4-((4-((3-(N-(tert-Butyl)sulfamoyl)phenyl)amino)-5-methylpyrimidin-2-yl)amino)phenyl)piperazin-1-yl)-5-oxopentanamido)-3,3-dimethylbutanoyl)-4-hydroxy-N-(4-(4-methylthiazol-5-yl)benzyl)pyrrolidine-2-carboxamide] | < 5.00
5 | Cc1ncsc1-c1ccc(CNC(=O)[C@@H]2C[C@@H](O)CN2C(=O)[C@@H](NC(=O)COCCOCCOCCOCCOCC(=O)N2CCN(c3ccc(Nc4nc5cccc(-c6ccc(S(C)(=O)=O)cc6)n5n4)cc3)CC2)C(C)(C)C)cc1 [JA-083, (2S,4R)-1-((S)-2-(tert-Butyl)-20-(4-(4-((5-(4-(methylsulfonyl)phenyl)-[1,2,4]triazolo[1,5-a]pyridin-2-yl)amino)phenyl)piperazin-1-yl)-4,20-dioxo-6,9,12,15,18-pentaoxa-3-azaicosanoyl)-4-hydroxy-N-(4-(4-methylthiazol-5-yl)benzyl)pyrrolidine-2-carboxamide] | < 5.00
6 | CS(=O)(=O)c1ccc(-c2cccc3nc(Nc4ccc(N5CCN(C(=O)CCOCCNc6ccc7c(c6)C(=O)N(C6CCC(=O)NC6=O)C7=O)CC5)cc4)nn23)cc1 (stereo not drawn) [JA-195, 2-(2,6-Dioxopiperidin-3-yl)-5-((2-(3-(4-(4-((5-(4-(methylsulfonyl)phenyl)-[1,2,4]triazolo[1,5-a]pyridin-2-yl)amino)phenyl)piperazin-1-yl)-3-oxopropoxy)ethyl)amino)isoindoline-1,3-dione] | < 5.00
7 | Cc1cnc(Nc2ccc(N3CCN(CC(=O)NCCOCCOCCOCCOCCOCCNc4ccc5c(c4)C(=O)N(C4CCC(=O)NC4=O)C5=O)CC3)cc2)nc1Nc1cccc(S(=O)(=O)NC(C)(C)C)c1 (stereo not drawn) [JA-241, 2-(4-(4-((4-((3-(N-(tert-butyl)sulfamoyl)phenyl)amino)-5-methylpyrimidin-2-yl)amino)phenyl)piperazin-1-yl)-N-(17-((2-(2,6-dioxopiperidin-3-yl)-1,3-dioxoisoindolin-5-yl)amino)-3,6,9,12,15-pentaoxaheptadecyl)acetamide] | 5.98
8 | Cc1ncsc1-c1ccc(CNC(=O)[C@@H]2C[C@@H](O)CN2C(=O)[C@@H](NC(=O)COCC(=O)N2CCN(c3ccc(Nc4nc5cccc(-c6ccc(S(C)(=O)=O)cc6)n5n4)cc3)CC2)C(C)(C)C)cc1 [JA-072, (2S,4R)-1-((S)-3,3-Dimethyl-2-(2-(2-(4-(4-((5-(4-(methylsulfonyl)phenyl)-[1,2,4]triazolo[1,5-a]pyridin-2-yl)amino)phenyl)piperazin-1-yl)-2-oxoethoxy)acetamido)butanoyl)-4-hydroxy-N-(4-(4-methylthiazol-5-yl)benzyl)pyrrolidine-2-carboxamide] | 5.19

Results, then the compound that gave them:

Row | pIC50 | Structure (SMILES)
9 | < 5.00 | O=C1CCC(N2C(=O)c3cccc(NCCCCCCCC(=O)N4CCC(n5cc(-c6cnc7cccc(-c8cc(F)c(CN9CCOCC9)c(F)c8)c7n6)cn5)CC4)c3C2=O)C(=O)N1 (stereo not drawn) [JA-038, 4-[[8-[4-[4-[8-[3,5-Difluoro-4-(morpholinomethyl)phenyl]quinoxalin-2-yl]pyrazol-1-yl]-1-piperidyl]-8-oxo-octyl]amino]-2-(2,6-dioxo-3-piperidyl)isoindoline-1,3-dione]
10 | < 5.00 | Cc1ncsc1-c1ccc(CNC(=O)[C@@H]2C[C@@H](O)CN2C(=O)[C@@H](NC(=O)COCCOCCOCCNC(=O)CN2CCC(n3cc(-c4cnc5cccc(-c6cc(F)c(CN7CCOCC7)c(F)c6)c5n4)cn3)CC2)C(C)(C)C)cc1 [JA-157, (2S,4R)-1-((S)-2-(tert-Butyl)-17-(4-(4-(8-(3,5-Difluoro-4-(morpholinomethyl)phenyl)quinoxalin-2-yl)-1H-pyrazol-1-yl)piperidin-1-yl)-4,16-dioxo-6,9,12-trioxa-3,15-diazaheptadecanoyl)-4-hydroxy-N-(4-(4-methylthiazol-5-yl)benzyl)pyrrolidine-2-carboxamide]
11 | < 5.00 | Cc1cnc(Nc2ccc(N3CCN(C(=O)CCCCCCNc4cccc5c4C(=O)N(C4CCC(=O)NC4=O)C5=O)CC3)cc2)nc1Nc1cccc(S(=O)(=O)NC(C)(C)C)c1 (stereo not drawn) [JA-015, N-(tert-Butyl)-3-((2-((4-(4-(7-((2-(2,6-dioxopiperidin-3-yl)-1,3-dioxoisoindolin-4-yl)amino)heptanoyl)piperazin-1-yl)phenyl)amino)-5-methylpyrimidin-4-yl)amino)benzenesulfonamide]
12 | 6.97 | CS(=O)(=O)c1ccc(-c2cccc3nc(Nc4ccc(N5CCN(C(=O)CCCCNc6ccc7c(c6)C(=O)N(C6CCC(=O)NC6=O)C7=O)CC5)cc4)nn23)cc1 (stereo not drawn) [JA-196, 2-(2,6-dioxopiperidin-3-yl)-5-((5-(4-(4-((5-(4-(methylsulfonyl)phenyl)-[1,2,4]triazolo[1,5-a]pyridin-2-yl)amino)phenyl)piperazin-1-yl)-5-oxopentyl)amino)isoindoline-1,3-dione]
13 | 5.48 | O=C1CCC(N2C(=O)c3cccc(NCCC(=O)N4CCC(n5cc(-c6cnc7cccc(-c8cc(F)c(CN9CCOCC9)c(F)c8)c7n6)cn5)CC4)c3C2=O)C(=O)N1 (stereo not drawn) [JA-004, 4-[[3-[4-[4-[8-[3,5-Difluoro-4-(morpholinomethyl)phenyl]quinoxalin-2-yl]pyrazol-1-yl]-1-piperidyl]-3-oxo-propyl]amino]-2-(2,6-dioxo-3-piperidyl)isoindoline-1,3-dione]
14 | 5.18 | O=C1CCC(N2C(=O)c3cccc(NCCCCC(=O)N4CCC(n5cc(-c6cnc7cccc(-c8cc(F)c(CN9CCOCC9)c(F)c8)c7n6)cn5)CC4)c3C2=O)C(=O)N1 (stereo not drawn) [JA-003, 4-[[5-[4-[4-[8-[3,5-Difluoro-4-(morpholinomethyl)phenyl]quinoxalin-2-yl]pyrazol-1-yl]-1-piperidyl]-5-oxo-pentyl]amino]-2-(2,6-dioxo-3-piperidyl)isoindoline-1,3-dione]
15 | < 5.00 | CS(=O)(=O)c1ccc(-c2cccc3nc(Nc4ccc(N5CCN(C(=O)CCCNc6cccc7c6C(=O)N(C6CCC(=O)NC6=O)C7=O)CC5)cc4)nn23)cc1 (stereo not drawn) [JA-010, 2-(2,6-Dioxopiperidin-3-yl)-4-((4-(4-(4-((5-(4-(methylsulfonyl)phenyl)-[1,2,4]triazolo[1,5-a]pyridin-2-yl)amino)phenyl)piperazin-1-yl)-4-oxobutyl)amino)isoindoline-1,3-dione]

Reference: patent US20230093099A1, “COMPOUNDS AND METHODS OF TREATING CANCERS” (CULLGEN (SHANGHAI), INC., priority 2019, published 2023)
